This experiment addresses T1, CCT8 in the human mLST8-CCT complex (Homo sapiens, UniProt P50990).
T1 construct: isolated from HEK-293T cells co-expressing His6-myc-PhLP1; no nucleotide added; with T-complex protein 1 subunit alpha; T-complex protein 1 subunit beta; T-complex protein 1 subunit gamma; T-complex protein 1 subunit delta; T-complex protein 1 subunit epsilon; T-complex protein 1 subunit zeta; T-complex protein 1 subunit eta; Target of rapamycin complex subunit LST8
T1 sequence (P50990 2-548): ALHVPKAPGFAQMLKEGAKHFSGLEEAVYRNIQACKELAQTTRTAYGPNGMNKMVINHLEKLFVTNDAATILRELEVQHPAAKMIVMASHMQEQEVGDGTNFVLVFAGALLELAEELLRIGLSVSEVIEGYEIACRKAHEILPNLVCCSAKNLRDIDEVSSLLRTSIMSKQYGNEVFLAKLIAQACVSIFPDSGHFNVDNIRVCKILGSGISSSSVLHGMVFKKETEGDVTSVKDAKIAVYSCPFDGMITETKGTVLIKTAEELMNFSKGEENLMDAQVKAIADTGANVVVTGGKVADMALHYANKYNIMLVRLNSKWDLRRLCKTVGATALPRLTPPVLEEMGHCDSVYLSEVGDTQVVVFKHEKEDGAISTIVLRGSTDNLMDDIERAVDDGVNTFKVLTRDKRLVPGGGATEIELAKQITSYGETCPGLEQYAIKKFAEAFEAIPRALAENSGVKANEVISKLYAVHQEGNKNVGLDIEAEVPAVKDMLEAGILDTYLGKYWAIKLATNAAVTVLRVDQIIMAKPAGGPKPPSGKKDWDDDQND
The experiment in a line: cryo-EM structure of the complex ([…] A). Particulars: co-purified nucleotide, none added; equatorial nucleotide-binding pocket of both CCT8 subunits.

In the case of `Nc1ncnc2c1ncn2[C@@H]1O[C@H](COP(=O)(O)OP(=O)(O)O)[C@@H](O)[C@H]1O` [ADP], the “cryo-EM structure of the complex (4.0 A)” value is listed as “nucleotide-binding pocket of either of the CCT8 subunits revealed electron density that is clearly attributable to ADP”.

The record behind these values is article PMC6599039, “Structural and functional analysis of the role of the chaperonin CCT in mTOR complex assembly” (Nature Communications, 2019).
